Measurements reported in patent publication US12642805B2, “Use of oxygenated cholesterol sulfates for treating at least one of insulin resistance, diabetes, and prediabetes” (Medicis Pharmaceutical Corporation, priority 2020, dated 2026).

Experiments:
Assay type in all cases: in vivo, rat
[1] = excretion mass balance after single intravenous dose; settings: rats, 10 mg/kg intravenous, over 168 hours
Protocol: (§1) Nine male Sprague Dawley rats (Group 1) were designated for the pharmacokinetic phase, 3 male Sprague Dawley rats (Group 2) for the excretion mass balance phase, and 7 male Sprague Dawley rats (Group 3) and 9 male Long Evans rats (Group 4) for the tissue distribution phase. All animals received a single intravenous dose of [1^4C]-25HC3S at 10 mg/kg and a target radioactivity of 225 μCi/kg. Blood samples were collected from all Group 1 animals at approximately 0.083, 0.25, 0.5, 1, 2, 4, 8, 12, 24, 48, and 72 hours post-dose. Urine and feces were collected from all Group 2 animals periodically through 168 hours post-dose. […] Following blood collection, animals were euthanized by CO2 inhalation and carcasses frozen in a dry ice/hexane bath for processing by quantitative whole body autoradiography. Whole blood, plasma, urine, feces, cage rinse, and cage wash were analyzed for total radioactivity by liquid scintillation counting.

[2] = quantitative whole body autoradiography tissue distribution, intravenous, Sprague Dawley rats; settings: 10 mg/kg intravenous
Protocol: as §1

[3] = quantitative whole body autoradiography tissue distribution, oral, Sprague Dawley rats; settings: 75 mg/kg oral
Text: No [1^4C]-25HC3S-derived radioactivity was detected in the eye (lens).

[4] = quantitative whole body autoradiography tissue distribution, intravenous, Long Evans rats; settings: 10 mg/kg intravenous
Protocol: as §1

[5] = plasma pharmacokinetics of radioactivity after single oral (gavage) dose; settings: rats, 75 mg/kg single oral (gavage)
Protocol: The terminal elimination phase T1/2 was 27.3 hours.

[6] = plasma pharmacokinetics of radioactivity after single intravenous dose; settings: rats, 10 mg/kg single intravenous bolus
Protocol: as §1

C[C@H](CCCC(C)(C)O)[C@H]1CC[C@H]2[C@@H]3CC=C4[14CH2][C@@H](OS(=O)(=O)O)CC[C@]4(C)[C@H]3CC[C@]12C [[4-^14C]-25HC3S]
recovered radioactivity in feces [1]: 83.0%
T1/2 in plasma (QWBA phase) [2]: 44.3 h
T1/2 in whole blood (QWBA phase) [2]: 52.2 h
maximum plasma concentration (QWBA phase) [2]: 12,400 ng-equiv./g
plasma:whole blood AUClast ratio [2]: 0.79
tissue:plasma ratio (AUClast), liver [2]: 11.4
tissue:plasma ratio (AUClast), small intestine (wall) [2]: 7.44
tissues in which radioactivity was detected [2]: all tissues except the eye (lens)
Skin, thymus, prostate, and pituitary tissue concentrations [3]: < 3000 ng equiv./g
Uveal tract and brain concentrations [3]: approximately 1000 ng equiv./g
tissue Tmax [3]: ≤ 6 h
tissue:plasma ratio (AUClast), adrenal gland [3]: 6.64
tissue:plasma ratio (AUClast), liver [3]: 6.96
tissue:plasma ratio (AUClast), small intestine (wall) [3]: 15.4
tissues in which radioactivity was detected [3]: all tissues except the eye (lens)
time by which plasma and whole blood concentrations were below quantitation limit ([4]; Long Evans (pigmented) rats): ≤ 336 h
binding to pigmented or non-pigmented skin or the uveal tract ([4]; Long Evans rats): no difference in binding to pigmented or non-pigmented skin or the uveal tract
time by which concentrations in skin and uveal tract tissues were below quantitation limit ([4]; Long Evans rats): ≤ 168 h
terminal elimination phase T1/2, plasma [5]: 27.3 h
mean plasma C0 (radioactivity) [6]: 25,900 ng-equiv./g
